The record followed here is patent US20200289480A1, “PERGOLIDE FOR USE IN THE TREATMENT OF EYE DISEASES ASSOCIATED WITH AN ELEVATED LEVEL OF VASCULAR ENDOTHELIAL GROWTH FACTOR (VEGF) AND PHARMACEUTICAL COMPOSITION CONTAINING PERGOLIDE” (priority 2017, published 2020).

Assay [1] deals with development of normal blood vessels. Put plainly: zebrafish embryo model, development of normal blood vessels. It counts as in vivo, zebrafish (Danio rerio). The settings on record: for effect on the development of normal blood vessels: lower concentrations (below 2.5 μmol: 50 nmol, 100 nmol, 500 nmol, 1 μmol). On the procedure: (§1) In studies on the effect of various substances on VEGF release and action, among others, a laboratory model using zebrafish (Danio rerio) is employed. The study tested 3 substances with potential inhibitory activity towards VEGF release and action which belong to the group of dopaminergic receptor D2 agonists—bromocriptine, cabergoline and pergolide. The study was conducted on the model using transgenic zebrafish embryos (Zebrafish Fli strain) with labelled blood system, illuminating under the fluorescent microscope. Photographic documentation was collected using Stereo Discover v8 fluorescent microscope, fluorescence 200c hxp, from Carl Zeiss Microscopy GmbH. During the study, the development of normal blood vessels and pathological blood vessels (abnormal angiogenesis) was observed. Abnormal angiogenesis was induced with the use of cobalt chloride (CoCl2) in a dose of 5 mM which was administered to the culture medium. The study tested the inhibitory effect of bromocriptine, cabergoline and pergolide on the development of normal blood vessels, as well as the inhibition of abnormal angiogenesis in 5 increasing concentrations of these substances: 50 nmol, 100 nmol, 500 nmol, 1 μmol, 2.5 μmol, dissolved in dimethyl sulfoxide (DMSO) and administered to the culture medium. Any changes in the development of natural (FIG. 1) and pathological blood vessels (FIG. 2) were recorded 72 an 96 hours after the administration of a tested substance and a tested substance with CoCl2, respectively. The level of inhibition of normal and pathological blood vessels development in tested embryos was compared to the activity of bevacizumab (Avastin) at the concentration of 2.5 μg/ml, which is an anti-VEGF recombinant humanised monoclonal antibody (FIGS. 3).

For assay [2], the system named is pathological blood vessels (abnormal angiogenesis) induced with CoCl2. The experiment in a line: zebrafish embryo model, CoCl2-induced abnormal angiogenesis. It counts as in vivo, zebrafish (Danio rerio). The settings on record: for inhibition of growth of pathological eye blood vessels / inhibition of growth of ventral vessels / effect on the development of pathological blood vessels: CoCl2 5 mM; for effect on the development of pathological blood vessels: lower concentrations (below 2.5 μmol: 50 nmol, 100 nmol, 500 nmol, 1 μmol); for inhibitory effect compared with other agents: qualitative comparison in the angiogenesis model. On the procedure: as §1, with “3). 72 and 96 after CoCl2 administration, the increase in the number of pathological eye blood vessels and the abnormal morphology thereof in the eyes (FIG. 2) as well as of ventral vessels (FIGS. 4 and 5) was observed.” for “3).”

[3] abbreviates: 2.5 μmol in culture medium, transgenic Zebrafish Fli embryos, recorded 72 and 96 hours.
[4] abbreviates: 2.5 μmol in culture medium, recorded 72 and 96 hours.

For the compound `C=CCN1C[C@H](C(=O)N(CCCN(C)C)C(=O)NCC)C[C@@H]2c3cccc4[nH]cc(c34)C[C@H]21` [cabergoline], the “inhibition of growth of normal eye blood vessels” value in assay [1] (setting [3]) is “partial inhibition”. The “effect on the development of normal blood vessels” value in assay [1] is listed as “no significant effect”. In addition, in assay [2] (setting [4]), the “inhibition of growth of pathological eye blood vessels” value was “full inhibition” and the “inhibition of growth of ventral vessels” value was “full inhibition”. The “inhibition of abnormal ventral vessels growth” value in assay [2] (2.5 μmol, 72 hours, FIG. 8) is on record as “Full inhibition”. Moreover, the “effect on the development of ventral vessels” value in assay [2] (lower concentrations (below 2.5 μmol)) was “no significant effect”. Moreover, in assay [2], the “effect on the development of pathological blood vessels” value was “no significant effect” and the “inhibitory effect compared with other agents” value is recorded as “more potent compared to bromocriptine”.
In the case of `CC(C)C[C@H]1C(=O)N2CCC[C@H]2[C@]2(O)O[C@](NC(=O)[C@@H]3C=C4c5cccc6[nH]c(Br)c(c56)C[C@H]4N(C)C3)(C(C)C)C(=O)N12` [bromocriptine], the “effect on the development of normal blood vessels” value in assay [1] was “no inhibitory effect”. Further, the “effect on the development of pathological blood vessels” value in assay [2] is listed as “no inhibitory effect”.
Take `CCCN1C[C@H](CSC)C[C@@H]2c3cccc4[nH]cc(c34)C[C@H]21` [pergolide]: the results for the “inhibition of growth of normal eye blood vessels” value in assay [1] (1.0 μmol in culture medium) and in assay [1] (setting [3]) were “partial inhibition” and “full inhibition”, respectively. Further, the “inhibition of normal ventral vessels growth” value in assay [1] (1 μmol, 72 hours, FIG. 9) was “Partial inhibition”. Moreover, the “inhibition of growth of pathological eye blood vessels” value in assay [2] (1.0 μmol in culture medium) and in assay [2] (setting [4]) was “full inhibition” throughout. Besides, the “inhibition of growth of ventral vessels” value in assay [2] (1.0 μmol in culture medium) and in assay [2] (setting [4]) was “full inhibition” throughout. Further, the “inhibitory effect on the development of normal and pathological blood vessels (overall conclusion)” value in assay [2] (conclusion from all concentrations tested) is on record as “potent inhibitory effect”. Besides, in assay [2], the “inhibitory effect compared with other agents” value is “more potent than for known agents”.
With bevacizumab, the “inhibition of CoCl2-induced abnormal vascular growth (eye)” value in assay [2] (2.5 μmol, 96 hours, FIG. 3) was “Inhibition”.
